In data set [1] the test system is Liver microsome. Put plainly: Retention time of the compound in rat liver microsomes treated with (S)-2-((1S,2S,4R)-bicyclo[2.2.1]heptan-2-ylamino)-5-(2-hydroxypropan-2-yl)-5-methylthiazol-4(5H)-one at 20 uM preincubated for 5 mins followed by NADPH addition measured after 60 mins by LC-MS/MS analysis. The data set is classed as ADME. The settings on record: 1 h.

The nature of data set [2]: Drug excretion in male Sprague-Dawley rat feces treated with [14C]-AMG 221 at 2 mg/kg, po measured over 24 hrs by LC-MS/HPLC radiometric analysis. It counts as ADME, organism-based. The settings on record: in vivo. More on the design: dose 2 mg/kg, route oral.
Data set [3] in a line: Drug level in Sprague-Dawley rat urine treated with [14C]-AMG 221 at 2 mg/kg, po measured over 24 hrs by LC-MS/HPLC radiometric analysis. It counts as ADME, organism-based. On the set-up: dose 2 mg/kg, route oral. The settings on record: in vivo.
A short description of data set [4]: Retention time of the compound in Beagle dog urine treated with [14C]-AMG 221 at 2 mg/kg, po measured over 24 hrs by LC-MS/HPLC radiometric analysis. The data set is classed as ADME, organism-based, Canis lupus familiaris. More on the design: dose 2 mg/kg, route oral. The settings on record: in vivo.
Data set [5] can be described thus: Drug excretion in female Sprague-Dawley rat urine treated with [14C]-AMG 221 at 2 mg/kg, po measured over 24 hrs by LC-MS/HPLC radiometric analysis. The data set is classed as ADME, organism-based. On the set-up: dose 2 mg/kg, route oral. The settings on record: in vivo.
Data set [6] has as its system Liver microsome. The experiment in a line: Drug level in rat liver microsomes treated with (S)-2-((1S,2S,4R,6R)-6-hydroxybicyclo[2.2.1]heptan-2-ylamino)-5-isopropyl-5-methylthiazol-4(5H)-one at 20 uM preincubated for 5 mins followed by NADPH addition measured after 60 mins by LC-MS/MS analysis. It counts as ADME. The settings on record: 1 h.
The nature of data set [7]: Drug excretion in female Sprague-Dawley rat feces treated with [14C]-AMG 221 at 2 mg/kg, po measured over 24 hrs by LC-MS/HPLC radiometric analysis. More on the design: dose 2 mg/kg, route oral. The data set is classed as ADME, organism-based. The settings on record: in vivo.
Data set [8] is described as follows: Retention time of the compound in Sprague-Dawley rat urine treated with [14C]-AMG 221 at 2 mg/kg, po measured over 24 hrs by LC-MS/HPLC radiometric analysis. It counts as ADME, organism-based. More on the design: dose 2 mg/kg, route oral. The settings on record: in vivo.
Data set [9] can be described thus: Drug excretion in male Sprague-Dawley rat urine treated with [14C]-AMG 221 at 2 mg/kg, po measured over 24 hrs by LC-MS/HPLC radiometric analysis. The settings on record: in vivo. More on the design: dose 2 mg/kg, route oral. It counts as ADME, organism-based.
Another data set deals with Rattus norvegicus. Put plainly: Total drug recovery in female Sprague-Dawley rat treated with [14C]-AMG 221 at 2 mg/kg, po measured over 48 hrs by liquid scintillation counting analysis. The data set is classed as ADME, organism-based. More on the design: dose 2 mg/kg, route oral. The settings on record: in vivo.
Data set [10] has as its system Liver microsome. The experiment in a line: Retention time of the compound in rat liver microsomes treated with ((S)-2-((1S,2S,4R)-bicyclo[2.2.1]heptan-2-ylamino)-5-(2-hydroxypropan-2-yl)-5-methylthiazol-4(5H)-one at 20 uM preincubated for 5 mins followed by NADPH addition measured after 60 mins by LC-MS/MS analysis. The settings on record: 1 h. The data set is classed as ADME. (Microsomes from liver hold many membrane-bound enzymes, among them those of drug oxidation.)

Molecules are shown by their SMILES.

As to `C[C@@H](CO)[C@]1(C)SC(N[C@H]2C[C@H]3C[C@@H]2[C@H](O)C3)=NC1=O`, the Retention_time in the data set with Liver microsome [1] amounted to 15.7 min; in [4] it was 15.1 min; in data set [8], 15.1 min. The Drug excretion in data set [2] is 8.3%; in data set [5], 24%; in [7], 24%; in data set [9], 8.3%. Besides, the Drug metabolism result (in data set [3]; in the data set with Liver microsome [6]) was “metabolite_detected” each time. For the same compound, in the data set on Rattus norvegicus, the Drug recovery is reported as 0.9%.
Consider `CC(C)(O)[C@]1(C)SC(N[C@H]2C[C@H]3C[C@@H]2[C@H](O)C3)=NC1=O`, for which the Drug excretion in data set [2] was found to be 8.3%; in data set [5], 24%; in data set [7], 24%; in data set [9], 8.3%. Also, the Retention_time with Liver microsome [10] was found to be 16.8 min. The Drug metabolism entry with Liver microsome [6] is listed as “metabolite_detected”. The Drug recovery in the data set on Rattus norvegicus was 2.4%.

These data come from ChEMBL document CHEMBL3525943, “Regiospecific and stereospecific triangulation of the structures of metabolites formed by sequential metabolism at multiple prochiral centers” (Drug Metab Dispos, 2012).
